The test system of data set [1] is NIH3T3. The experiment in a line: Wound healing activity in Swiss albino mouse 3T3 cells assessed as cell migration-associated increase in cell number at 20 uM after 12 hrs by scratch assay. It counts as functional, cell-based.
Data set [2] has as its system NIH3T3. Kind of data set: Cytotoxicity against Swiss albino mouse 3T3 cells at 10 to 20 uM. It is filed as cell-based. Conditions: nih3t3, 20 µM.
Data set [3] has as its system NIH3T3. Kind of data set: Wound healing activity in Swiss albino mouse 3T3 cells assessed as cell migration-associated increase in cell number at 1 uM after 12 hrs by scratch assay. It counts as functional, cell-based.
Data set [4] deals with NIH3T3. Kind of data set: Wound healing activity in Swiss albino mouse 3T3 cells assessed as cell migration-associated increase in cell number at 10 uM after 12 hrs by scratch assay. It counts as functional, cell-based.
The next data set concerns Jurkat. Kind of data set: Inhibition of TNF-alpha-induced NFkappaB activity in human Jurkat cells at 10 uM after 24 hrs by EMSA. It counts as cell-based. On the technique in general: A gel shift assay detects complexes by their altered migration in electrophoresis.

Calls of active or inactive are those of the source. No cut-off for these calls is given here.

Take `COc1c(O)cc([C@H]2Oc3c(c(O)cc(O)c3[C@H]3c4c(O)cc(O)cc4O[C@H](c4ccc(O)c(O)c4)[C@@H]3O)C[C@@H]2O)cc1O`: the result with NIH3T3 [1] and with NIH3T3 [4] was inactive. Also, in the data set with NIH3T3 [2], the Activity result is on record as “Toxic”. In the data set with NIH3T3 [3], the outcome was Active.

In the case of `COc1c(O)cc([C@H]2Oc3c(c(O)cc(O)c3[C@H]3c4c(O)cc(O)cc4O[C@H](c4cc(O)c(O)c(O)c4)[C@@H]3O)C[C@@H]2O)cc1O`, the result in the data set with NIH3T3 [1] and with NIH3T3 [4] was inactive. Besides, the Activity entry with NIH3T3 [2] is listed as “Toxic”. Also, the inhibition entry in the data set on Jurkat was “Active”. For the same molecule, in the data set on NIH3T3 [3], the result was Active.

On to `COc1c(O)cc([C@H]2Oc3cc(O)cc(O)c3[C@@H](c3c(O)cc(O)c4c3O[C@H](c3cc(O)c(OC)c(O)c3)[C@@H](O)C4)[C@@H]2O)cc1O`, for which the outcome with NIH3T3 [1] and with NIH3T3 [4] was inactive. Also, the Activity entry with NIH3T3 [2] is reported as “Toxic”. Also, the outcome in the data set on NIH3T3 [3] was Active.
